Where two headings read alike, the source gives them in different places.
Columns and labels:
Ba/F3 = test: Cell viability CellTiter-Glo 2.0; assay type: cell-based; details: Mus musculus, BaF3; Ba/F3, 72 hours, mean±SD of three experiments
Protocol: Cellular potencies against RET wildtype fusions and RET mutations, including the gatekeeper mutations V804L/M and selpercatinib- or pralsetinib-resistant mutations G810R/S, were investigated in engineered Ba/F3 cells. […] Cell viability was assessed by luminescence using the CellTiter-Glo 2.0 Assay (Promega Corporation). […] Data are presented as mean±SD of the data obtained from three independent experiments.

[1] = tested on: PDX tumors (CCDC6-RET), poor response to RXDX-105; test: PDX from patient with poor response to RXDX-105; assay type: in vivo, mouse
[2] = tested on: PDX tumor (CCDC6-RET), RXDX-105-resistant; assay type: in vivo, mouse
NIH3T3 KIF5B-RET = test: Vandetanib-refractory tumor model; assay type: in vivo, mouse; details: 50 mg/kg BID oral after switching from vandetanib on Day 16; Day 31
Protocol: A mouse fibroblast cell line transfected with fusion kinase KIF5B-RET (NIH3T3 KIF5B-RET) was transplanted at 5×10^6 cells/mouse into the right chest of 6-week old male BALB/cA Jcl-nu mice. After the tumor transplant, the major axis (mm) and the minor axis (mm) of the tumor were measured using a caliper to calculate the tumor volume (TV) according to the following formula (A). Then, the mice were allocated to various groups so that the average TV's of the various groups would be uniform. The day on which this grouping (n=5-6/group) was performed was designated Day 1.
As an index of the antitumor effect, the TV on Day 31 was measured for each group, and the relative tumor volume (RTV) for Day 1 was calculated by the following formula (B) to evaluate the antitumor effect.

[3] = tested on: cell line harboring a KIF5B-RET fusion from a patient never treated with any anti-cancer therapy; test: Growth inhibition, treatment-naive patient-derived cell line; assay type: cell-based; details: Homo sapiens
Text: The efficacy of HM06/TAS0953 was examined in two cell lines derived from treatment-naïve samples. One of the cell lines was derived from a sample obtained from a patient who was never treated with any anti-cancer therapy, and which harbors a KIF5B-RET fusion.

[4] = tested on: NIH-3T3-CCDC6-RET xenograft tumors; assay type: in vivo, mouse

CO[C@]1(C(=O)N[C@@H](C)c2ccc(-n3cc(F)cn3)nc2)CC[C@H](c2nc(C)cc(Nc3cc(C)[nH]n3)n2)CC1 [BLU-667, pralsetinib]
GI50 (Ba/F3): 1350 ± 250 nM

COCc1ccc(NC(=O)c2c(C#CCN3CCOCC3)n(C3(C)CC3)c3ncnc(N)c23)cc1 [HM06/TAS0953, 4-amino-N-(4-(methoxymethyl)phenyl)-7-(1-methylcyclopropyl)-6-(3-morpholinoprop-1-yn-1-yl)-7H-pyrrolo[2,3-d]pyrimidine-5-carboxamide]
tumor volume vs vehicle ([1]; 50 mg/kg BID): small but significant reduction in tumor volume
tumor shrinkage ([1]; 50 mg/kg BID and 100 mg/kg QD): no tumor shrinkage
tumor growth ([1]; 100 mg/kg QD, compared with 50 mg/kg BID): more effective at slowing tumor growth
animal weight ([1]; any groups): did not cause any significant change in weight
tumor shrinkage ([2]; 50 mg/kg BID): 8.6±11.8%
animal weight ([2]; 50 mg/kg BID or 100 mg/kg QD): did not affect animal weight in the groups significantly
tumor shrinkage ([2]; 100 mg/kg QD): 30±7.7%
mean RTV vs continuous vandetanib treatment group (NIH3T3 KIF5B-RET): significantly (Student t-test, p<0.05) smaller
IC50 [3]: 30 nM
efficacy compared with vandetanib 100 mg/kg QD ([4]; 50 mg/kg BID or 100 mg/kg QD): more effective than vandetanib
tumor growth vs vehicle ([4]; 12.5-100 mg/kg QD or BID): significant reduction in tumor growth at all doses tested
animal weight ([4]; any of the doses used): no significant reduction in animal weight

Reference: patent US20240000791A1, “Methods of Using 4-Amino-N-[4-(Methoxymethyl)Phenyl]-7-(1-Methylcyclopropyl)-6-(3-Morpholinoprop-1-YN-1-YL)-7H-Pyrrolo[2,3-D]Pyrimidine-5-Carboxamide for the Treatment of Tumors” (Helsinn Healthcare SA, priority 2020, published 2024)
